Patent US9187472B2 (AbbVie Inc., priority 2012, dated 2015)

Tests used:
[1] = biological target: NAMPT (human, recombinant, C-terminally His-tagged) (Homo sapiens, UniProt P43490); test: Time-Resolved Fluorescence Resonance Energy Transfer (TR-FRET) Binding Assay of NAMPT; details: without substrates; 6.8 nM NAMPT, 200 nM probe, 3 hours equilibration
In short: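 11-pt half-log compound series; final 6.8 nM NAMPT, 200 nM OG488 nicotinamide-competitive probe, 1 nM Tb-anti-His Ab, 2% DMSO, HEPES pH 7.5/NaCl/MgCl2/DTT/glycerol buffer. 3 h RT equilibration. Em520/Em495 ratio (Ex 337 nm), control-normalized, 4-parameter fit → IC50.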

NAMPT = NAMPT (Homo sapiens, UniProt P43490); test: TR-FRET Binding Assay of NAMPT with PRPP; details: with 200 μM PRPP and 2.5 mM ATP; 2 nM NAMPT, 2 nM probe, 16 hours equilibration
NAMPT, sequence (P43490 whole entry): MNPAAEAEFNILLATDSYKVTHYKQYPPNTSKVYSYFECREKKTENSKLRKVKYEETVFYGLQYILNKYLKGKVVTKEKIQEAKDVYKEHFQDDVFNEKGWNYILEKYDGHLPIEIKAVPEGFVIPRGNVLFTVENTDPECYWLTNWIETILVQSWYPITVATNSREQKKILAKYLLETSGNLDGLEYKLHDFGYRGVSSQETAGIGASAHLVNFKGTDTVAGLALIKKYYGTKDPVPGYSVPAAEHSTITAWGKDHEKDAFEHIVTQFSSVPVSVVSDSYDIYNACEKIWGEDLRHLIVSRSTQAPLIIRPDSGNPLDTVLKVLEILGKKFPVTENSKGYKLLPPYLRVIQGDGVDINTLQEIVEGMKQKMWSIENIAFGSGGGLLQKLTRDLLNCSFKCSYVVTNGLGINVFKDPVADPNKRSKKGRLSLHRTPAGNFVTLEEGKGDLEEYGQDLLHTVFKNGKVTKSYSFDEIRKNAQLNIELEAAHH
In short: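 TR-FRET probe-displacement binding with 2 nM NAMPT, 2 nM probe and 1 nM Tb-anti-His antibody, run in the presence of 200 μM PRPP and 2.5 mM ATP at 2% DMSO. Equilibrated 16 hours before reading so test compounds could undergo enzymatic modification.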

PC3 cells = test: NAMPT Cell Proliferation Assay; assay type: cell-based; details: Homo sapiens, PC-3, 120 h, 5 days incubation, cell viability by Cell Titer Glo
In short: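 PC3 cells were plated at 500 cells/well in RPMI with 10% heat-inactivated FBS, left to attach overnight, then given compounds in 10-fold dilutions from 10 μM to 1×10^−5 μM. After 5 days at 37° C and 5% CO2, viability was read by luminescence and IC50s came from sigmoidal fits of percent inhibition.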

NAMPT (human, recombinant, C-terminally His-tagged), sequence (P43490 whole entry): as above

SMILES | IC50 [1] [nM] | IC50 (NAMPT) [nM] | IC50 (PC3 cells) [nM]
O=C(NC1(c2ccc(C(=O)NCc3ccn4ccnc4c3)s2)CCC1)c1ccccc1 [Example 471, 5-[1-(benzoylamino)cyclobutyl]-N-(imidazo[1,2-a]pyridin-7-ylmethyl)thiophene-2-carboxamide] | 3440 | 0.471 | 6510
O=C(NCc1ccn2ccnc2c1)Nc1ccc(O[C@@H]2CCN(C(=O)c3ccccc3)C2)cc1 [Example 329, 1-(4-{[(3R)-1-benzoylpyrrolidin-3-yl]oxy}phenyl)-3-(imidazo[1,2-a]pyridin-7-ylmethyl)urea] | 30.8 | 0.169 | 12.4
O=C(NCc1ccn2ccnc2c1)c1ccc(C2=CCN(S(=O)(=O)C3CC3)CC2)s1 [Example 246, 5-[1-(cyclopropylsulfonyl)-1,2,3,6-tetrahydropyridin-4-yl]-N-(imidazo[1,2-a]pyridin-7-ylmethyl)thiophene-2-carboxamide] | 73.2 | 0.22 | 2.43
CC(C)CCNC(=O)c1ccc(NC(=O)Nc2ccn3ccnc3c2)cc1 [Example 2, 4-[(imidazo[1,2-a]pyridin-7-ylcarbamoyl)amino]-N-(3-methylbutyl)benzamide] | 854 | 39.8 | > 10000
N#Cc1ccccc1C(=O)N1CCC(c2ccc(C(=O)NCc3ccn4ccnc4c3)cc2)CC1 [Example 737, 4-[1-(2-cyanobenzoyl)piperidin-4-yl]-N-(imidazo[1,2-a]pyridin-7-ylmethyl)benzamide] | 70.4 | 0.612 | 4.05
O=C(NCc1ccn2ccnc2c1)c1ccc(C2CCN(C(=O)c3ccccc3F)CC2)s1 [Example 677, 5-[1-(2-fluorobenzoyl)piperidin-4-yl]-N-(imidazo[1,2-a]pyridin-7-ylmethyl)thiophene-2-carboxamide] | 1.77 | 0.796 | 0.613
N#CC1(C(=O)N2CCC(c3ccc(C(=O)NCc4ccn5ccnc5c4)s3)C2)CC1 (stereo not drawn) [Example 781, 5-{1-[(1-cyanocyclopropyl)carbonyl]pyrrolidin-3-yl}-N-(imidazo[1,2-a]pyridin-7-ylmethyl)thiophene-2-carboxamide] | 87.5 | 0.839 | 7.27
O=C(Nc1ccc(C(=O)NCCOc2ccccc2)cc1)Nc1ccc2nccn2c1 [Example 10, 4-[(imidazo[1,2-a]pyridin-6-ylcarbamoyl)amino]-N-(2-phenoxyethyl)benzamide] | 197 | 0.457 | 331
O=C(NCc1ccn2ccnc2c1)c1ccc(C2CCN(C(=O)c3ccoc3)C2)cc1 (stereo not drawn) [Example 612, 4-[1-(furan-3-ylcarbonyl)pyrrolidin-3-yl]-N-(imidazo[1,2-a]pyridin-7-ylmethyl)benzamide] | 706 | 0.919 | 695
O=C(NC1(c2ccc(C(=O)NCc3ccn4ccnc4c3)s2)COC1)c1ccccc1 [Example 325, 5-[3-(benzoylamino)oxetan-3-yl]-N-(imidazo[1,2-a]pyridin-7-ylmethyl)thiophene-2-carboxamide] | 180 | 0.278 | 32.9
CC(C)(O)C(=O)N1CCC(c2ccc(C(=O)NCc3ccn4ccnc4c3)cc2)C1 (stereo not drawn) [Example 372, 4-[1-(2-hydroxy-2-methylpropanoyl)pyrrolidin-3-yl]-N-(imidazo[1,2-a]pyridin-7-ylmethyl)benzamide] | 2440 | 0.46 | 868
O=C(NCc1ccn2ccnc2c1)Nc1ccc(OC2CCN(C(=O)CC3CCOCC3)CC2)cc1 [Example 451, 1-(imidazo[1,2-a]pyridin-7-ylmethyl)-3-(4-{[1-(tetrahydro-2H-pyran-4-ylacetyl)piperidin-4-yl]oxy}phenyl)urea] | 400 | 0.373 | 17.3
COc1cccc(C(=O)N2CC(c3ccc(C(=O)NCc4ccn5ccnc5c4)cc3)C2)c1 [Example 654, N-(imidazo[1,2-a]pyridin-7-ylmethyl)-4-[1-(3-methoxybenzoyl)azetidin-3-yl]benzamide] | 213 | 0.945 | 67.9

Second part, the compound after the results:

IC50 [1] [nM] | IC50 (NAMPT) [nM] | IC50 (PC3 cells) [nM] | SMILES
38.8 | 0.735 | 6 | O=C(NCc1ccn2ccnc2c1)c1ccc(C2CCN(C(=O)c3ccc(Cl)cc3)C2)s1 (stereo not drawn) [Example 770, 5-[1-(4-chlorobenzoyl)pyrrolidin-3-yl]-N-(imidazo[1,2-a]pyridin-7-ylmethyl)thiophene-2-carboxamide]
97.2 | 0.671 | 6.98 | Cc1noc(C)c1C(=O)N1CCC(c2ccc(C(=O)NCc3ccn4ccnc4c3)s2)C1 (stereo not drawn) [Example 797, 5-{1-[(3,5-dimethyl-1,2-oxazol-4-yl)carbonyl]pyrrolidin-3-yl}-N-(imidazo[1,2-a]pyridin-7-ylmethyl)thiophene-2-carboxamide]
119 | 0.411 | 26.4 | O=C(NCc1ccc2nccn2c1)c1ccc(C2=CCN(C(=O)C3CCCO3)CC2)cc1 (stereo not drawn) [Example 99, N-(imidazo[1,2-a]pyridin-6-ylmethyl)-4-[1-(tetrahydrofuran-2-ylcarbonyl)-1,2,3,6-tetrahydropyridin-4-yl]benzamide]
21.5 | 0.169 | 2.1 | O=C(NCc1ccn2ccnc2c1)c1ccc(C2CCN(C(=O)c3ccccc3F)C2)s1 (stereo not drawn) [Example 776, 5-[1-(2-fluorobenzoyl)pyrrolidin-3-yl]-N-(imidazo[1,2-a]pyridin-7-ylmethyl)thiophene-2-carboxamide]
3270 | 3.18 | 28 | CC(C)OCCNC(=O)N(C[C@@H]1CCCO1)c1ncc(C(=O)NCc2ccc3nccn3c2)s1 [Example 156, N-(imidazo[1,2-a]pyridin-6-ylmethyl)-2-({[2-(propan-2-yloxy)ethyl]carbamoyl}[(2S)-tetrahydrofuran-2-ylmethyl]amino)-1,3-thiazole-5-carboxamide]
64.4 | 0.907 | 9.8 | O=C(NCc1ccn2ccnc2c1)c1ccc(C2CCN(C(=O)c3ccco3)C2)s1 (stereo not drawn) [Example 783, 5-[1-(furan-2-ylcarbonyl)pyrrolidin-3-yl]-N-(imidazo[1,2-a]pyridin-7-ylmethyl)thiophene-2-carboxamide]
52.2 | 0.522 | 2.34 | COc1cc(CCC(=O)N(CC2CCCO2)c2ncc(C(=O)NCc3ccc4nccn4c3)s2)on1 (stereo not drawn) [Example 127, N-(imidazo[1,2-a]pyridin-6-ylmethyl)-2-{[3-(3-methoxy-1,2-oxazol-5-yl)propanoyl](tetrahydrofuran-2-ylmethyl)amino}-1,3-thiazole-5-carboxamide]
863 | 0.69 | 61.3 | O=C(NCc1ccc2nccn2c1)c1cnc(N2C(=O)OCC2C2CCOC2)s1 (stereo not drawn) [Example 116, N-(imidazo[1,2-a]pyridin-6-ylmethyl)-2-[2-oxo-4-(tetrahydrofuran-3-yl)-1,3-oxazolidin-3-yl]-1,3-thiazole-5-carboxamide]
192 | 11.1 | 29.3 | Cn1cccc1CCC(=O)N(CC1CCCO1)c1ncc(C(=O)NCc2ccc3nccn3c2)s1 (stereo not drawn) [Example 189, N-(imidazo[1,2-a]pyridin-6-ylmethyl)-2-{[3-(1-methyl-1H-pyrrol-2-yl)propanoyl](tetrahydrofuran-2-ylmethyl)amino}-1,3-thiazole-5-carboxamide]
